Laboratory results as given in publication PMC10205807, “Cross-species comparison in nonclinical pharmacokinetics of lenvatinib by a simple HPLC with ultraviolet detection” (Scientific Reports, 2023).
Like-named read-outs stand apart in the source and are kept apart here.

Key:
plasma protein = experiment: plasma unbound fraction, humans; format: in vitro ADME; conditions: human
[1] = Cross-species PK summary (mice, rats, dogs, monkeys); format: in vivo, and monkeys; conditions: for bioavailability: rat, rats
Description: PK parameters of lenvatinib were estimated by model independent analysis using a WinNonlin program (Version 4.1, Pharsight Corporation, Mountain View, CA). The time to reach the maximum plasma concentration (Tmax) and the maximum plasma concentration (Cmax) values were obtained directly from the plasma concentration data. Terminal half-life (T1/2) was calculated by ln2/ke, where ke is the slope of the regression line that fits the portion of the terminal phase (at least three time points) in the log-linear concentration–time curve. AUC0–t and AUMC0–t, the area under the concentration–time curves and the area under the first moment curve, from time = zero to time = t, respectively, were calculated using the lenvatinib concentrations in plasma by the linear/log trapezoidal method. AUC0–inf was calculated by AUC0–t + Ct/ke, and AUMC0–inf was AUMC0–t + Ct × t/ke + Ct/(ke)^2, where Ct is the last measurable concentration at time = t. The plasma concentration at time zero for the intravenous dose was extrapolated, while zero was used for the oral doses. Mean residence time (MRT), total plasma clearance (CLtot) and the volume of distribution at steady state (Vdss) were calculated by AUMC0–inf/AUC0–inf, Dose/AUC0–inf and CLtot × MRT, respectively. Oral bioavailability (F) was estimated by comparing dose-normalized AUC0–inf after oral (AUC0–inf.po) and intravenous (AUC0–inf.iv) administration as follows: F (%) = (AUC0–inf.po/AUC0–inf.iv) × 100.
One of the typical approaches for predicting human PK from animal PK is empirical allometric scaling. As the CLtot of lenvatinib was relatively low and Vdss of lenvatinib was low to medium, thus it is theoretically preferable to correct by fp for both parameters. The CLtot divided by fp (CLtot/fp) or Vdss divided by fp (Vdss/fp) were plotted against body weight (BW) by log–log scale, and a linear regression was performed to estimate a slope and intercept for linear regression. The BW used in the calculation was 0.02, 0.2, 10, 5, and 70 kg for mice, rats, dogs, monkeys, and humans, respectively. CLtot and Vdss of lenvatinib in humans were predicted by using the regression line and the BW of humans. As no PK data of lenvatinib are available for CLtot and Vdss, which can be estimated only from intravenous administration PK study in humans, it is not possible to assess predictability of the allometric scaling for these two parameters of lenvatinib in humans. However, it is possible to predict exposure of lenvatinib after oral administration (AUCoral) in humans from the allometry scaling of hepatic intrinsic clearance (CLint). As lenvatinib is mainly cleared by the liver, AUCoral is estimated by Fa × Fg × Dose/(fp × CLint)[9], where Fa, Fg, fp, and CLint are absorption at the gastrointestinal (GI) tract, metabolic availability at the GI, unbound fraction in plasma, and hepatic intrinsic clearance, respectively. The CLint is thus estimated by Fa × Fg × Dose/(fp × AUCoral) in all the animal species including humans just from PK data from oral administration. The allometric scaling approach was applied for CLint in mice, rats, dogs, and monkeys. The logarithmic plot of CLint and BW was performed for a linear regression and a regression line [log (CLint) = slope × log (BW) + intercept], which was derived by logarithmic transformation of the equation CLint = a × BW^b was obtained. The CLint predicted from the allometric scaling was compared to the observed CLint after oral administration of lenvatinib at 9 mg in humans.

[2] = Stability of lenvatinib in mice plasma and processed samples; format: physicochemical; conditions: for Frozen stability, mean percentage bias from the theoretical values: below − 15 °C, 4 weeks
Description: Calibration samples and QC samples for the reproducibility assessment were prepared by spiking 0.05 mL of the working standard solutions to blank plasma (0.05 mL), and QC samples for the stability assessment were prepared by fortifying 0.05 mL of the solution to 1.5 mL of bank plasma. Lenvatinib concentrations in plasma were 0.005, 0.01, 0.03, 0.1, 0.3, 1, 3, 10, 30, and 100 μg/mL for the calibration samples, and were 0.005, 0.01, 1, and 100 μg/mL for the QC samples for reproducibility assessment. Lenvatinib concentrations of QC samples for the stability assessment were 0.01, 1, and 80 μg/mL.
The developed method for the determination of lenvatinib concentrations in plasma was validated and the following validation parameters including linearity, selectivity, intra- and inter-batch reproducibility, extraction recovery, and stability were evaluated in accordance with the bioanalytical guidelines by United States Food and Drug Administration (US-FDA)[7]. The peak height ratios of lenvatinib to the IS of calibration samples were plotted against the corresponding nominal concentrations of lenvatinib. The calibration curve was prepared by the least square method with 1/(concentration)^2 as the weighting factor. In the linearity assessment, accuracy of each calibration sample was determined to ensure that relative error (RE) at each concentration was within ± 15% (within ± 20% at the LLOQ). […] Intra-batch accuracy and precision were evaluated using QC samples at the four concentrations, LLOQ, low QC (LQC), mid QC (MQC), and ULOQ. […] Inter-batch accuracy and precision were evaluated by testing a single sample at each concentration across five batches (n = 5 in total). […] Extraction recoveries of lenvatinib and the IS from plasma samples of the four species were evaluated. The recoveries of lenvatinib at the low, mid, and high QC levels (triplicates per concentration), and that of the IS (0.5 μg/mL) were determined. […] Stability of lenvatinib in plasma and processed samples was assessed at the low and high QC levels. Lenvatinib concentrations in samples after storage were compared to the theoretical concentrations and RE values were calculated. […] Freeze–thaw stability in plasma was evaluated up to three freeze–thaw cycles and frozen stability in plasma was evaluated at − 15 °C or below for 4 weeks (mice, rats, and dogs) or 6 weeks (monkeys). Stability in processed samples was assessed at 4 °C for 7 days. Stability of lenvatinib in the standard solutions was evaluated for the stock (100 μg/mL) and the working solution (5 ng/mL). The stability of the IS solution (0.5 μg/mL) was also assessed. […]

fraction unbound (plasma protein): 0.0172
availability in the intestine ([1]; calculated from CLtot (iv), blood-to-plasma partition, hepatic blood flow, and bioavailability): > 0.7
clearance ([1]; mouse, dog, monkey, plasma, the other three species (mice, dogs, monkeys), intravenous 3 mg/kg, read-out: CLtot): 3.97 to 6.13 mL/min/kg
bioavailability ([1]; mouse, dog, monkey, plasma, oral, 3 mg/kg, mice, dogs, monkeys, read-out: average bioavailability in the four species): 70%
bioavailability ([1]; mouse, dog, monkey, plasma, po, 3 mg/kg, range over mice, dogs, and monkeys, read-out: oral bioavailability): 64.4 to 78.4%
bioavailability ([1]; mouse, dog, monkey, plasma, po, range over mice, dogs, and monkeys, read-out: oral bioavailability): 64 to 78%
Freeze/thaw stability, mean percentage bias from the theoretical values ([2]; mice plasma, 3 cycles, HQC 80 μg/mL): 0.8%
Frozen stability, mean percentage bias from the theoretical values ([2]; mice plasma, LQC 0.01 μg/mL): 0.0%
Frozen stability, mean percentage bias from the theoretical values ([2]; mice plasma, MQC 1 μg/mL): 1.0%
Processed sample stability, mean percentage bias from the theoretical values ([2]; processed mice plasma samples, 4 °C, 7 days, HQC 80 μg/mL): 0.3%
Structure (SMILES): COc1cc2nccc(Oc3ccc(NC(=O)NC4CC4)c(Cl)c3)c2cc1C(N)=O [lenvatinib, Lenvatinib]
